Measurements: patent US11691986B2, “PTEFB inhibiting macrocyclic compounds” (Bayer Aktiengesellschaft, priority 2017, dated 2023)

What was measured:
CDK9/CycT1 = target: T1, CDK9/CycT1 (Homo sapiens, UniProt P50750); assay: CDK9/CycT1 high ATP kinase assay (TR-FRET); format: biochemical; details: 2 mM ATP; for IC50: Method 1b; for Selectivity high ATP CDK9 over high ATP CDK2: IC50 (high ATP CDK2)/IC50 (high ATP CDK9): minimal values where CDK9 IC50 is at the assay limit of about 1-2 nM
T1 construct: Recombinant full-length His-tagged human CDK9 and CycT1; His; purchased Life Technologies PV4131; host or cells: insect cells
T1 sequence (P50750 whole entry): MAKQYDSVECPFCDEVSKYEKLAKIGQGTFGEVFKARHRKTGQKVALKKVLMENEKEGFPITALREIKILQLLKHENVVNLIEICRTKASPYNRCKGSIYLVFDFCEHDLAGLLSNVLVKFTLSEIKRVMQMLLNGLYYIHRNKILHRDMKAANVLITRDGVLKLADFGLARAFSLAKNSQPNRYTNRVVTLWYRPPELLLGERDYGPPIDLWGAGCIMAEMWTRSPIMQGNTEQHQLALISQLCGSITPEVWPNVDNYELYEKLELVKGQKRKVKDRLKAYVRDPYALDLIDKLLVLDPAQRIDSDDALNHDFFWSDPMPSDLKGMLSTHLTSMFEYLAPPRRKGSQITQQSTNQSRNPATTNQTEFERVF
T1 sequence (O60563 whole entry partner): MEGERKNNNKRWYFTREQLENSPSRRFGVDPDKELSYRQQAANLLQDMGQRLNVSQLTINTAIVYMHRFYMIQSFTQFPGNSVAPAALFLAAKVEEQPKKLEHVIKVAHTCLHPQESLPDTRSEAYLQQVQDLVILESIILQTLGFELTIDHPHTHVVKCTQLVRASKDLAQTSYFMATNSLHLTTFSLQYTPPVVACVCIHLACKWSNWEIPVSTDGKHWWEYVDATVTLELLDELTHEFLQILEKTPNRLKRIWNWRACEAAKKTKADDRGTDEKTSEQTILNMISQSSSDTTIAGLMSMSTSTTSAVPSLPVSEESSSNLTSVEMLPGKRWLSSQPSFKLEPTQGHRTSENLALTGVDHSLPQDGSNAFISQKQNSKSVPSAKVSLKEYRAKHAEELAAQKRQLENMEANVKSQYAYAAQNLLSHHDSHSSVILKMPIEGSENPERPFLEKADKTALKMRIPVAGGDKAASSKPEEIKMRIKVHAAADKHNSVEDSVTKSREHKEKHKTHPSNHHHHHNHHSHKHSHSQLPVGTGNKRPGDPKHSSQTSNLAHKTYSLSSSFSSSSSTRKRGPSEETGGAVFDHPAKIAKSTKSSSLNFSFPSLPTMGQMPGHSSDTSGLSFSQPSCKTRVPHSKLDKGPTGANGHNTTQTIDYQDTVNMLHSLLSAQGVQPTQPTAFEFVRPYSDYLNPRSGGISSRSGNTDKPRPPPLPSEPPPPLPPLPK
Procedure: 1b. CDK9/CycT1 High ATP Kinase Assay
CDK9/CycT1-inhibitory activity of compounds of the present invention at a high ATP concentration after preincubation of enzyme and test compounds was quantified employing the CDK9/CycT1 TR-FRET assay as described in the following paragraphs.
Recombinant full-length His-tagged human CDK9 and CycT1, expressed in insect cells and purified by Ni-NTA affinity chromatography, were purchased from Life Technologies (Cat. No PV4131). As substrate for the kinase reaction biotinylated peptide biotin-Ttds-YISPLKSPYKISEG (C-terminus in amide form) was used which can be purchased e.g. form the company JERINI peptide technologies (Berlin, Germany).
For the assay 50 nl of a 100 fold concentrated solution of the test compound in DMSO was pipetted into either a black low volume 384 well microtiter plate or a black 1536 well microtiter plate (both Greiner Bio-One, Frickenhausen, Germany), 2 μl of a solution of CDK9/CycT1 in aqueous assay buffer [50 mM Tris/HCl pH 8.0, 10 mM MgCl2, 1.0 mM dithiothreitol, 0.1 mM sodium ortho-vanadate, 0.01% (v/v) Nonidet-P40 (Sigma)] were added and the mixture was incubated for 15 min at 22° C. to allow pre-binding of the test compounds to the enzyme before the start of the kinase reaction. […] The concentration of CDK9/CycT1 was adjusted depending of the activity of the enzyme lot and was chosen appropriate to have the assay in the linear range, typical concentrations were in the range of 0.5 μg/ml. The reaction was stopped by the addition of 3 μl of a solution of TR-FRET detection reagents (0.33 μM streptavidine-XL665 [Cisbio Bioassays, Codolet, France] and 1.67 nM anti-RB(pSer807/pSer811)-antibody from BD Pharmingen [#558389] and 2 nM LANCE EU-W1024 labeled anti-mouse IgG antibody [Perkin-Elmer, product no. AD0077]) in an aqueous EDTA-solution (167 mM EDTA, 0.2% (w/v) bovine serum albumin in 100 mM HEPES pH 7.5).
The resulting mixture was incubated 1 h at 22° C. to allow the formation of complex between the phosphorylated biotinylated peptide and the detection reagents. Subsequently the amount of phosphorylated substrate was evaluated by measurement of the resonance energy transfer from the Eu-chelate to the streptavidine-XL. Therefore, the fluorescence emissions at 620 nm and 665 nm after excitation at 350 nm was measured in a TR-FRET reader, e.g. a Pherastar (BMG Labtechnologies, Offenburg, Germany) or a Viewlux (Perkin-Elmer). The ratio of the emissions at 665 nm and at […] was taken as the measure for the amount of phosphorylated substrate. The data were normalised (enzyme reaction without inhibitor=0% inhibition, all other assay components but no enzyme=100% inhibition).

Caco-2 cells = assay: Proliferation assay, Caco-2 (crystal violet); format: cell-based; details: Homo sapiens, 96 h; Caco-2, 4 days; read-out: Inhibition of Caco-2 cell proliferation IC50
Procedure: (§1) Cultivated tumour cells (HeLa, human cervical tumour cells, ATCC CCL-2; NCI-H460, human non-small cell lung carcinoma cells, ATCC HTB-177; DU 145, hormone-independent human prostate carcinoma cells, ATCC HTB-81; HeLa-MaTu-ADR, multidrug-resistant human cervical carcinoma cells, EPO-GmbH Berlin; Caco-2, human colorectal carcinoma cells, ATCC HTB-37; B16F10, mouse melanoma cells, ATCC CRL-6475) were plated at a density of 5,000 cells/well (DU145, HeLa-MaTu-ADR), 3,000 cells/well (NCI-H460, HeLa), 1,500 cells/well (Caco-2), or 1,000 cells/well (B16F10) in a 96-well multititer plate in 200 μL of their respective growth medium supplemented 10% fetal calf serum. After 24 hours, the cells of one plate (zero-point plate) were stained with crystal violet (see below), while the medium of the other plates was supplemented with the test substances in various concentrations (0 μM, as well as in the range of 0.0001-10 μM; the final concentration of the solvent dimethyl sulfoxide was adjusted to 0.1%) using a Hewlett-Packard HP D300 Digital Dispenser. The cells were incubated for 4 days in the presence of test substances. Cell proliferation was determined by staining the cells with crystal violet: the cells were fixed by adding 20 μl/measuring point of an 11% glutaric aldehyde solution for 15 minutes at room temperature. After three washing cycles of the fixed cells with water, the plates were dried at room temperature. The cells were stained by adding 100 μl/measuring point of a 0.1% crystal violet solution (pH 3.0). After three washing cycles of the stained cells with water, the plates were dried at room temperature. The dye was dissolved by adding 100 μl/measuring point of a 10% acetic acid solution. The extinction was determined by photometry at a wavelength of 595 nm. The change of cell number, in percent, was calculated by normalization of the measured values to the extinction values of the zero-point plate (=0%) and the extinction of the untreated (0 Wm) cells (=100%). The IC50 values (inhibitory concentration at 50% of maximal effect) were determined by means of a 4 parameter fit.

HeLa cells = assay: Proliferation assay, HeLa (crystal violet); format: cell-based; details: Homo sapiens, 96 h, 4 days, read-out: Inhibition of HeLa cell proliferation IC50
Procedure: as §1

B16F10 cells = assay: Proliferation assay, B16F10 (crystal violet); format: cell-based; details: Mus musculus, B16-F10, 96 h; B16F10, 4 days; read-out: Inhibition of B16F10 cell proliferation IC50
Procedure: as §1

`CC1CCCNc2cc(ccc2F)-c2nc(ncc2F)Nc2cc(CS(C)(=O)=O)cc(c2)O1` (racemic) [Example 8, (rac)-3,20-difluoro-14-methyl-10-[(methylsulfonyl)methyl]-13-oxa-5,7,18,25-tetraazatetracyclo[17.3.1.1^2,6.1^8,12]pentacosa-1(23),2(25),3,5,8(24),9,11,19,21-nonaene] was tested, and the IC50 (CDK9/CycT1) was 0.8 nM and the “Selectivity high ATP CDK9 over high ATP CDK2: IC50 (high ATP CDK2)/IC50 (high ATP CDK9)” value (from here on “Selectivity high ATP CDK9”) (CDK9/CycT1) was 606.
In the case of `CS(=N)(=O)Cc1cc2cc(c1)OCCCCNc1cc(ccc1F)-c1nc(ncc1F)N2` (racemic) [Example 2, (rac)-3,20-difluoro-10-[(S-methylsulfonimidoyl)methyl]-13-oxa-5,7,18,25-tetraazatetracyclo[17.3.1.1^2,6.1^8,12]pentacosa-1(23),2(25),3,5,8(24),9,11,19,21-nonaene], the IC50 (Caco-2 cells) is reported as 8.4 nM, the IC50 (HeLa cells) is reported as 4.4 nM and the IC50 (CDK9/CycT1) is reported as 1.8 nM. The “Selectivity high ATP CDK9” value (CDK9/CycT1) was 87 and the IC50 (B16F10 cells) was 1.2 nM.
`CC(C)(C)OC(=O)N=S(C)(=O)Cc1cc2cc(c1)OCCCCNc1cc(ccc1F)-c1nc(ncc1F)N2` (racemic) [Example 1, (rac)-tert-butyl [{[3,20-difluoro-13-oxa-5,7,18,25-tetraazatetracyclo[17.3.1.1^2,6.1^8,12]pentacosa-1(23),2(25),3,5,8(24),9,11,19,21-nonaen-10-yl]methyl}(methyl)oxido-λ^6-sulfanylidene]carbamate] gave an IC50 (Caco-2 cells) of 70 nM, an IC50 (HeLa cells) of 40 nM and an IC50 (CDK9/CycT1) of 3.4 nM. For the same compound, the “Selectivity high ATP CDK9” value (CDK9/CycT1) was 249 and the IC50 (B16F10 cells) was 99 nM.
For `CS(=N)(=O)Cc1cc2cc(c1)OCCCNc1cc(ccc1F)-c1nc(ncc1F)N2` (racemic) [Example 3, (rac)-3,19-difluoro-10-[(S-methylsulfonimidoyl)methyl]-13-oxa-5,7,17,24-tetraazatetracyclo[16.3.1.1^2,6.1^8,12]tetracosa-1(22),2(24),3,5,8(23),9,11,18,20-nonaene], the IC50 (Caco-2 cells) was 20 nM, the IC50 (HeLa cells) was 15 nM and the IC50 (CDK9/CycT1) was 1.8 nM. For the same compound, the “Selectivity high ATP CDK9” value (CDK9/CycT1) was 460 and the IC50 (B16F10 cells) was 25 nM.
